Drawing on PubChem BioAssay (NCI), this text covers GI50 and TGI for seven molecules.

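Five compound concentrations were applied to cells in 96-well plates for 48 hours; endpoints were derived by simple linear interpolation of the resulting dose-response curve. The concentration for 50% growth inhibition is given as GI50. The concentration for full growth arrest is given as TGI.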 Bounds are passed on as bounds.

Among the test systems are SNB-75 CNS; A549 NSCLC; NCI/ADR-RES ovarian; NCI-H522 lung; EKVX NSCLC; HCC-2998 colon; K-562 leukemia; SN12C renal; UO-31 renal; KM12 colon.
What all share (assay): growth of human tumour cells (NCI), 48 h

In the case of `CC(=O)c1ccc(NC(=O)CSc2nnc(-c3cc(-c4ccc(C)cc4)nc4ccccc34)o2)cc1`, the GI50 was 1.77 µM in the experiment with SNB-75 CNS; 3.01 µM in the experiment with A549 NSCLC; 3.14 µM in the experiment with NCI/ADR-RES ovarian; 2.39 µM with NCI-H522 lung; 3.13 µM in the experiment with EKVX NSCLC; over 100 µM in the experiment with HCC-2998 colon. For the same molecule, the GI50 in the experiment on K-562 leukemia was 3.15 µM; with SN12C renal, 2.15 µM; in the experiment on UO-31 renal, 1.75 µM. In addition, the TGI with SNB-75 CNS was 3.57 µM; with A549 NSCLC, over 100 µM; in the experiment on NCI/ADR-RES ovarian, over 100 µM; in the experiment on NCI-H522 lung, 9.06 µM; in the experiment on EKVX NSCLC, over 100 µM; in the experiment with HCC-2998 colon, over 100 µM. In addition, the figures for the TGI in the experiment with K-562 leukemia, in the experiment with SN12C renal and in the experiment with UO-31 renal were over 100 µM, 5.45 µM and 4.5 µM, respectively.
For the molecule `CCCCCCCC/C=C/CCCCCCCC1=NCC[N+]1(CCO)CCO`, the GI50 is 2.39 µM with SNB-75 CNS; 2.77 µM in the experiment with A549 NSCLC; 11.8 µM in the experiment on NCI/ADR-RES ovarian; 1.61 µM in the experiment on NCI-H522 lung; 4.71 µM with EKVX NSCLC; 3.67 µM in the experiment with HCC-2998 colon. Also, the GI50 was 1.52 µM in the experiment with K-562 leukemia, 1.87 µM in the experiment with KM12 colon, 3.2 µM in the experiment with SN12C renal and 3.97 µM in the experiment on UO-31 renal. Also, the TGI with SNB-75 CNS turned out to be 9.52 µM; in the experiment with A549 NSCLC, 10.9 µM; with NCI/ADR-RES ovarian, 37.7 µM; in the experiment with NCI-H522 lung it was 4.46 µM; in the experiment on EKVX NSCLC, 26.4 µM; with HCC-2998 colon it was 20.3 µM. For the same molecule, the TGI worked out at 4.34 µM in the experiment with K-562 leukemia, 3.61 µM in the experiment with KM12 colon, 12.6 µM in the experiment with SN12C renal and 19.7 µM in the experiment on UO-31 renal.
For the molecule `COc1cc(/C=C/c2cc(/C=C/c3ccc(O)c(OC)c3)n(-c3c(C)cccc3C)c(=O)n2)ccc1O`, the GI50 is 1.18 µM in the experiment on A549 NSCLC; 1.42 µM in the experiment with NCI/ADR-RES ovarian; 0.264 µM in the experiment on NCI-H522 lung; 1.86 µM with EKVX NSCLC; 2.28 µM in the experiment on HCC-2998 colon; 0.374 µM in the experiment on K-562 leukemia. For the same molecule, the GI50 is 0.47 µM in the experiment with KM12 colon, 1.66 µM in the experiment on SN12C renal and 0.352 µM in the experiment with UO-31 renal. The TGI is 7.6 µM with A549 NSCLC; 5.77 µM in the experiment with NCI/ADR-RES ovarian; 1.04 µM in the experiment with NCI-H522 lung; 6.73 µM with EKVX NSCLC; 9.15 µM in the experiment on HCC-2998 colon; over 100 µM in the experiment on K-562 leukemia. For the same molecule, the values for the TGI in the experiment on KM12 colon, in the experiment with SN12C renal and in the experiment with UO-31 renal were 3.63 µM, over 100 µM and 2.53 µM, respectively.
For `Cc1nc2sccn2c(=O)c1CCN1CCC(=C(c2ccc(F)cc2)c2ccc(F)cc2)CC1`, the GI50 with SNB-75 CNS is 14.5 µM; in the experiment on A549 NSCLC, 12.9 µM; with NCI/ADR-RES ovarian, 13.8 µM; in the experiment on NCI-H522 lung, 11.1 µM; in the experiment on EKVX NSCLC it was 10.7 µM; in the experiment with HCC-2998 colon, 12.3 µM. Further, the GI50 with K-562 leukemia was 5.18 µM; in the experiment on KM12 colon, 12.2 µM; with SN12C renal it was 14.5 µM; in the experiment with UO-31 renal, 4.06 µM. Also, the TGI in the experiment with SNB-75 CNS came to 28.7 µM; with A549 NSCLC, 29.1 µM; in the experiment with NCI/ADR-RES ovarian, 32.9 µM; in the experiment with NCI-H522 lung, 25.7 µM; in the experiment on EKVX NSCLC, 24.1 µM; in the experiment with HCC-2998 colon, 27.5 µM. In addition, the TGI was found to be 26.2 µM in the experiment on K-562 leukemia, 27.4 µM with KM12 colon, 29.3 µM in the experiment with SN12C renal and 18.8 µM in the experiment with UO-31 renal.
With `O=C1C(Br)=CC2(C=C1Br)CCN=c1c2c(O)c2nc3ccccc3c3ccnc1c23`, the GI50 with A549 NSCLC was 6.69 µM; with NCI/ADR-RES ovarian, 2.04 µM; in the experiment on NCI-H522 lung, 0.727 µM; with EKVX NSCLC, 7.23 µM; with HCC-2998 colon, 9.78 µM; with K-562 leukemia it was 1.8 µM. Moreover, the values for the GI50 in the experiment with KM12 colon, in the experiment on SN12C renal and with UO-31 renal were 2.42 µM, 1.54 µM and 0.761 µM, respectively. The TGI came to 28.4 µM in the experiment with A549 NSCLC; 29.2 µM with NCI/ADR-RES ovarian; 1.49 µM with NCI-H522 lung; 15.1 µM with EKVX NSCLC; 22.3 µM with HCC-2998 colon; 7.9 µM in the experiment with K-562 leukemia. Besides, the TGI was found to be 8.67 µM with KM12 colon, 5.92 µM in the experiment on SN12C renal and 1.55 µM with UO-31 renal.
As for `COc1cc(NCCCCN=C(N)NC(N)=NC(C)C)c2ncccc2c1`, the GI50 in the experiment on SNB-75 CNS is 4.21 µM; with A549 NSCLC it was 35.4 µM; with NCI/ADR-RES ovarian, over 100 µM; in the experiment on NCI-H522 lung it was 0.929 µM; with EKVX NSCLC, 5.83 µM; in the experiment with HCC-2998 colon, 2.52 µM. The GI50 is 3.65 µM in the experiment with K-562 leukemia, 1.48 µM with KM12 colon, 5.21 µM in the experiment with SN12C renal and 99 µM in the experiment on UO-31 renal. Further, the TGI with SNB-75 CNS was 17.3 µM; in the experiment on A549 NSCLC it was over 100 µM; in the experiment on NCI/ADR-RES ovarian, over 100 µM; in the experiment with NCI-H522 lung, 3.93 µM; in the experiment with EKVX NSCLC it was over 62 µM; with HCC-2998 colon it was 14.2 µM. The TGI in the experiment on K-562 leukemia is 25.8 µM; in the experiment on KM12 colon it was 11.8 µM; in the experiment on SN12C renal, 28.5 µM; with UO-31 renal, over 100 µM.
In the case of `O=[N+]([O-])c1ccc(-c2nc(-c3ccccc3)c(-c3ccccc3)n2-c2ccccc2)cc1`, the GI50 was 2.64 µM in the experiment with SNB-75 CNS; 3.01 µM in the experiment on A549 NSCLC; 2.68 µM with NCI/ADR-RES ovarian; 3.05 µM in the experiment with NCI-H522 lung; 2.93 µM in the experiment on EKVX NSCLC; 2.07 µM in the experiment on HCC-2998 colon. For the same molecule, the GI50 with K-562 leukemia was 3.24 µM; in the experiment on KM12 colon, 2.3 µM; with SN12C renal, 2.69 µM; with UO-31 renal it was 1.99 µM. Further, the TGI in the experiment with SNB-75 CNS is 22 µM; in the experiment with A549 NSCLC, 12.6 µM; in the experiment on NCI/ADR-RES ovarian it was 7.88 µM; in the experiment with NCI-H522 lung, over 28.4 µM; in the experiment with EKVX NSCLC, over 26.6 µM; in the experiment with HCC-2998 colon, 4.1 µM. Also, the TGI was 95.9 µM in the experiment on K-562 leukemia, 5.6 µM in the experiment on KM12 colon, 12.4 µM in the experiment on SN12C renal and 6.67 µM in the experiment with UO-31 renal.
